Tested on: myotubes differentiated from C2C12 cells
Experiment: mitochondrial calcium elevation (mitochondrial aequorin luminescence) on caffeine stimulation
Type: cell-based
Details: 1 mM Mg^2+ + 3 μM Oea; C2C12-derived myotubes; 5 mM caffeine; n=32; P<0.05 Student's t-test; FIG. 1
Procedure: To test the effect of Oleuropein aglycone (Oea), Mg^2+ and their combination on mitochondrial activation in living cells, the inventors measured mitochondrial calcium elevation in myotubes differentiated from C2C12 cells.
C2C12 cells were purchased from ATCC. C2C12 cells were seeded in 384-well plates at a density of 4500 cells per well in DMEM medium, high glucose (Gibco)+10% fetal calf serum. Myotubes were differentiated from C2C12 cells by growing the cells in DMEM containing 2% horse serum, for 6 days.
Mitochondrial calcium measurements were carried out using myotubes infected with the adenovirus (from Sirion biotech) expressing the luminescent mitochondrially-targeted calcium sensor mitochondrial mutated aequorin (Montero et al., 2004). […] Myotubes were stimulated with 5 mM of caffeine and the total calcium transiting during stimulation was calculated as the area under the curve, during caffeine stimulation. Luminescence was measured at the FLIPR cell imaging reader (Molecular devices). Calibration of the luminescence data into Calcium concentration was carried out using an algorithm as described previously (Alvarez & Montero, 2002). Custom module analysis based on Excel (Microsoft) and GraphPad Prism 7.02 (GraphPad) software was used for quantification.

C/C=C1/C(O)OC=C(C(=O)OC)[C@H]1CC(=O)OCCc1ccc(O)c(O)c1 (mixture of isomers) [Oleuropein aglycone]
mitochondrial calcium rise: real measured effect of the combination vs expected theoretical effect (sum of Oea effect and Mg^2+ effect): synergies with Mg^2+ to activate mitochondria

Reference: patent US20250009774A1, “COMPOSITIONS AND METHODS USING A COMBINATION OF OLEUROPEIN AND MAGNESIUM” (SOCIETE DES PRODUITS NESTLE S.A., priority 2021, published 2025)
